Source: patent US12679827B2, “Pyrimidine compounds and their pharmaceutical uses” (National Health Research Institutes, priority 2020, dated 2026)

How the values were obtained:
[1] = test system: NCI-H446; assay: Small-cell-lung cancer cell proliferation inhibition assay (PrestoBlue), NCI-H446; type: cell-based; settings: Homo sapiens, cMYC amplified SCLC cells, 72 hours
Method: (§1) Small cell lung cancer cells NCI-H82 (ATCC HTB-175, cMYC amplified), NCI-H446 (ATCC® HTB-171, cMYC amplified), and NCI-H69 (ATCC® HTB-119, MYCN amplified) were seeded at the density of 5000-10000 cells per well in 96-well plates. After 24 hours, the cancer cells were treated with each compound at various concentrations (0-10 μM) and then incubated for another 72 hours. IC50 values were computed based on duplicated 8-point titration.

[2] = test system: NCI-H69; assay: Small-cell-lung cancer cell proliferation inhibition assay (PrestoBlue), NCI-H69; type: cell-based; settings: Homo sapiens, MYCN amplified SCLC cells, 72 hours
Method: as §1

[3] = target: T1, human Aurora A (amino acids 123-401) (Homo sapiens, UniProt O14965); assay: Kinase-Glo Luminescent Kinase assay, in vitro inhibition of Aurora A kinase activity; type: biochemical; settings: recombinant GST-tagged Aurora A, 5.0 μM ATP, 37° C., 120 minutes
T1 construct: human Aurora A (amino acids 123-401) was expressed in Sf9 insect cells; GST; made in house; host or cells: Sf9 insect cells
T1 sequence (O14965 123-401): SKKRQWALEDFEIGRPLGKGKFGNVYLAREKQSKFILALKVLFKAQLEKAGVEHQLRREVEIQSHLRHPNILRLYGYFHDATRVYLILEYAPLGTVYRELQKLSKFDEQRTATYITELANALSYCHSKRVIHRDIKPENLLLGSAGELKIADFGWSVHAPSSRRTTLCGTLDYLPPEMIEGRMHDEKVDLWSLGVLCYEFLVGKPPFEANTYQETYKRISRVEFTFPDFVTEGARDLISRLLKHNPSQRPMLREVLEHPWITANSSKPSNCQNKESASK
Method: Recombinant glutathione S-transferase (GST)-tagged N-terminal truncated human Aurora A (amino acids 123-401) was expressed in Sf9 insect cells and then purified by glutathione affinity chromatography to afford recombinant Aurora A. Recombinant Aurora A (150 ng) was reacted with each test compound (100 nM) in 50 μL of 50 mM Tris-HCl pH 7.4, 10 mM NaCl, 10 mM MgCl2, 0.01% bovine serum albumin, 5.0 μM ATP, 1 mM dithiothreitol, 15 μM tetra(-LRRASLG) peptide at 37° C. for 120 minutes. Then, to the reaction was added 50 μL of Kinase-Glo Plus Reagent. The resulting mixture was incubated at 25° C. for 20 minutes. A 70 μL aliquot of the mixture was transferred to a black microliter plate. Luminescence was measured using a Wallac Vector 1420 multilabel counter (PerkinElmer, USA).

[4] = test system: NCI-H82; assay: Small-cell-lung cancer cell proliferation inhibition assay (PrestoBlue), NCI-H82; type: cell-based; settings: Homo sapiens, cMYC amplified SCLC cells, 72 hours
Method: as §1

In the case of `Cc1cc(Nc2cc(N3CCN(C)CC3)nc(NC3CCN(C(=O)c4cccc(Cl)c4F)CC3)n2)n[nH]1` [Compound 90], the IC50 [1] is reported as < 1000 nM, the IC50 [2] is reported as < 1000 nM and the IC50 [3] is reported as < 100 nM. The IC50 [4] was < 1000 nM.

With `COC[C@H]1CCCN1c1cc(Nc2cc(C)[nH]n2)nc(NC2CCN(C(=O)c3cccc(Cl)c3F)CC2)n1` [Compound 97] the IC50 [1] was < 1000 nM, the IC50 [2] was < 1000 nM and the IC50 [3] was < 100 nM. The IC50 [4] was < 1000 nM.

With `Cc1cc(Nc2cc(N3CCN(CC(F)(F)F)CC3)nc(N[C@H]3CCN(C(=O)c4ccc(Cl)cc4F)C3)n2)n[nH]1` [Compound 14] the IC50 [1] was < 1000 nM, the IC50 [2] was < 1000 nM and the IC50 [3] was < 100 nM. The IC50 [4] was < 1000 nM.

With `CCN1CCN(c2cc(Nc3cc(C)n(C(=O)C(C)(C)C)n3)nc(N[C@H]3CCN(C(=O)c4ccc(Cl)cc4F)C3)n2)CC1` [Compound 74] the IC50 [1] was < 1000 nM, the IC50 [2] was < 1000 nM and the IC50 [4] was < 1000 nM.

For `Cc1cc(Nc2cc(N3CCN(C4COC4)CC3)nc(N[C@H]3CCN(C(=O)c4ccc(Cl)cc4F)C3)n2)n[nH]1` [Compound 16], the IC50 [1] was < 1000 nM, the IC50 [2] was < 1000 nM and the IC50 [3] was < 100 nM. For the same compound, the IC50 [4] was < 1000 nM.

In the case of `Cc1cc(Nc2cc(N3CCN(CC(F)(F)F)CC3)nc(NC3CCN(C(=O)c4cccc(Cl)c4F)CC3)n2)n[nH]1` [Compound 106], the IC50 [1] is reported as < 1000 nM, the IC50 [2] is reported as < 1000 nM and the IC50 [3] is reported as < 100 nM. The IC50 [4] was < 1000 nM.

With `CCN1CCN(c2cc(Nc3cc(C)n(C(=O)OC(C)(C)C)n3)nc(N[C@H]3CCN(C(=O)c4ccc(Cl)cc4F)C3)n2)CC1` [Compound 81] the IC50 [1] was < 1000 nM, the IC50 [2] was < 1000 nM and the IC50 [4] was < 1000 nM.

With `CCN1CCN(c2cc(Nc3cc(C)nn3C(=O)OCCOC)nc(N[C@H]3CCN(C(=O)c4ccc(Cl)cc4F)C3)n2)CC1` [Compound 82] the IC50 [1] was < 1000 nM, the IC50 [2] was < 1000 nM and the IC50 [4] was < 1000 nM.

`Cc1cc(Nc2cc(N3C[C@@H](C)N(C)[C@@H](C)C3)nc(N[C@H]3CCN(C(=O)c4ccc(Cl)cc4F)C3)n2)n[nH]1` [Compound 15] was tested, and the IC50 [1] was < 1000 nM, the IC50 [2] was < 1000 nM and the IC50 [3] was < 100 nM. For the same compound, the IC50 [4] was < 1000 nM.

For `Cc1cc(Nc2cc(N3C[C@H](C)NC[C@H]3C)nc(N[C@H]3CCN(C(=O)c4ccc(Cl)cc4F)C3)n2)n[nH]1` [Compound 9], the IC50 [1] was < 1000 nM, the IC50 [2] was < 1000 nM and the IC50 [4] was < 1000 nM.

`Cc1cc(Nc2cc(N3CC[C@@H](N(C)C)C3)nc(NC3CCN(C(=O)c4cccc(Cl)c4F)CC3)n2)n[nH]1` [Compound 94] was tested, and the IC50 [1] was < 1000 nM, the IC50 [2] was < 1000 nM and the IC50 [3] was < 100 nM. For the same compound, the IC50 [4] was < 1000 nM.

In the case of `CCN1CCN(c2cc(Nc3cc(C)nn3C(=O)C(C)(C)C)nc(N[C@H]3CCN(C(=O)c4ccc(Cl)cc4F)C3)n2)CC1` [Compound 73], the IC50 [1] is reported as < 1000 nM, the IC50 [2] is reported as < 1000 nM and the IC50 [4] is reported as < 1000 nM.

For `CCN1CCN(c2cc(Nc3cc(C)nn3C(=O)OC(C)(C)C)nc(N[C@H]3CCN(C(=O)c4ccc(Cl)cc4F)C3)n2)CC1` [Compound 80], the IC50 [1] was < 1000 nM, the IC50 [2] was < 1000 nM and the IC50 [4] was < 1000 nM.

`CCN1CCN(c2cc(Nc3cc(C)n(COC(=O)C(C)(C)C)n3)nc(N[C@H]3CCN(C(=O)c4ccc(Cl)cc4F)C3)n2)CC1` [Compound 75] was tested, and the IC50 [1] was < 1000 nM, the IC50 [2] was < 1000 nM and the IC50 [4] was < 1000 nM.

With `Cc1cc(Nc2cc(N3C[C@@H](C)N[C@@H](C)C3)nc(NC3CCN(C(=O)c4cccc(Cl)c4F)CC3)n2)n[nH]1` [Compound 102] the IC50 [1] was < 1000 nM, the IC50 [2] was < 1000 nM and the IC50 [3] was < 100 nM. The IC50 [4] was < 1000 nM.

`CCC(=O)n1nc(Nc2cc(N3CCN(CC)CC3)nc(NC3CCN(C(=O)c4cccc(Cl)c4F)CC3)n2)cc1C` [Compound 123] was tested, and the IC50 [1] was < 1000 nM, the IC50 [2] was < 1000 nM and the IC50 [3] was < 100 nM. The IC50 [4] was < 1000 nM.

In the case of `COC1CN(c2cc(Nc3cc(C)[nH]n3)nc(NC3CCN(C(=O)c4cccc(Cl)c4F)CC3)n2)C1` [Compound 99], the IC50 [1] is reported as < 1000 nM, the IC50 [2] is reported as < 1000 nM and the IC50 [3] is reported as < 100 nM.

`COCCN1CCN(c2cc(Nc3cc(C)[nH]n3)nc(NC3CCN(C(=O)c4cccc(Cl)c4F)CC3)n2)CC1` [Compound 101] was tested, and the IC50 [1] was < 1000 nM, the IC50 [2] was < 1000 nM and the IC50 [3] was < 100 nM.

`CCN1CCN(c2cc(Nc3cc(C)n(C(=O)OCC(C)C)n3)nc(N[C@H]3CCN(C(=O)c4ccc(Cl)cc4F)C3)n2)CC1` [Compound 79] was tested, and the IC50 [1] was < 1000 nM, the IC50 [2] was < 1000 nM and the IC50 [4] was < 1000 nM.
